# Reference: patent US6495376B1, “Methods and compositions for regulating protein-protein interactions” (Beth Israel Deaconess Medical Center, priority 1999, dated 2002)
# Where two headings read alike, the source gives them in different places.
# Legend:
# Pin1^R14A = target: T1, Pin1^R14A (Homo sapiens, UniProt Q13526, R14A); assay: ELISA peptide binding to Pin1^R14A; conditions: mutant Pin1^R14A
# T1 construct: mitotic HeLa cell extracts incubated with the entire Pin1 protein or its WW-domain; GST or His (N); made in house
# T1 sequence (Q13526 whole entry R14A): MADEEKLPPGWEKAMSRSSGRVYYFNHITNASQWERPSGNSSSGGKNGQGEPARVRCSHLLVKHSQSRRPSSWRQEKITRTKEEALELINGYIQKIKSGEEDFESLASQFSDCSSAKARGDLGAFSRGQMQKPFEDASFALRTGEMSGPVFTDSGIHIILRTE
# Pin1^Y23A = target: T2, Pin1^Y23A (Homo sapiens, UniProt Q13526, Y23A); assay: ELISA peptide binding to Pin1^Y23A; conditions: mutant Pin1^Y23A
# T2 construct: mitotic HeLa cell extracts incubated with the entire Pin1 protein or its WW-domain; GST or His (N); made in house
# T2 sequence (Q13526 whole entry Y23A): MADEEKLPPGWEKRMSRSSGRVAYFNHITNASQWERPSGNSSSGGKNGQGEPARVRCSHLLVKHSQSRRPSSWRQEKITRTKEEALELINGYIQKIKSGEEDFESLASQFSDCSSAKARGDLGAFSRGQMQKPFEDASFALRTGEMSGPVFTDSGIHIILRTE
# Pin1 = Pin1 (Homo sapiens, UniProt Q13526); assay: ELISA peptide binding to Pin1; conditions: Pin1
# Pin1, sequence (Q13526 whole entry, the tested form may be a part): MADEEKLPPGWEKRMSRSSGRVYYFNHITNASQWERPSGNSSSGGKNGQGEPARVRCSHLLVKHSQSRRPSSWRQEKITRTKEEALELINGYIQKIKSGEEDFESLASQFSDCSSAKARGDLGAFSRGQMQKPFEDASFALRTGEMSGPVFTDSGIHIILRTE
# [1] = tested on: MPM-2 antigens (mitotic phosphoproteins) of mitotic HeLa cell extracts; assay: GST pulldown from mitotic HeLa cell extracts, MPM-2 immunoblotting (phosphoprotein-binding activity); conditions: for binding to mitotic phosphoproteins / MPM-2 antigens (in words): mitotic HeLa cell extracts; for Phosphoprotein binding activity: GST-fusion proteins with mitotic extracts, MPM2 antibody
# Procedure: GST-fusion proteins containing the WW-domain, PPIase-domain or the entire Pin 1 protein were prepared and incubated with interphase (G1/S arrested; Control) or dividing (M phase) HeLa cell extracts using well-known procedures (Lu, K. P., et al., Nature 380:544 (1996); (Shen, M., et al., Genes & Devl. 12:706 (1998)). Briefly, HeLa cells were arrested at the G1/S boundary or mitosis by incubation with thymidine and aphidicolin or nocodazole for 16 h, respectively. The cells were lysed and supernatants incubated with 10 μl of agarose beads containing GST-Pin1; GST-WW-domain of Pin1; GST-PPIase domain of Pin1; or control GST for 2 h at 4° C. The phosphorylated precipitated proteins were washed 5 times in buffer containing 1% Triton X-100 before subjecting to immunoblotting analysis using MPM-2 antibody, as described previously (Yaffe, M. B. et al., Science 278:1957 (1997); Schukowski, et al., Biochemistry 37:5566 (1998); Shen, M. et al., Genes & Dev 12:706 (1998)). MPM-2 recognizes a subset of mitotic phosphoproteins including Pin1-binding proteins such as cdc25.
# (§1) Pintide and its nonphosphorylated counterpart were synthesized and incubated with GST-Pin1 or the GST-WW-domain of Pin1 in a binding buffer, using established procedures (Shen, M. et al., Genes & Dev 12:706 (1998)). After a 1 hr incubation, mitotic HeLa cell extracts were added and subjected to GST pull down experiments, followed by immunoblotting analysis using the MPM-2 antibody. To obtain semi-quantitative data, films of immunoblots were scanned at the region of 55 kDa, the major Pin1-binding protein, and data analyzed using ImageQuan (ScanJet II CX). The peptide binding constants were measured using a fluorescence polarization assay (Jiskoot, W. et al., Anal Biochem 196:421 (1991)). Peptides were fluorescein labeled at the N-terminus using the Fluorescein Amine Labeling Kit (Pan Vera Corp.) and purified by TLC according to the manufacturer's […]. To prevent nonspecific labeling, a Pintide analogue (WFYpSPFLE) SEQ ID NO: 8 and the nonphosphorylated control were used. Various concentrations of Pin1 and its mutant proteins were incubated with 0.1 μM of the labeled peptides in a binding buffer containing 50 mM HEPES, pH 7.4, 100 mM NaCl, 2% glycerol. Fluorescence polarization values were obtained using a Pan Vera Beacon 2000 system, as described by the manufacturer.
# To examine the effect of Pin1 phosphorylation on Pin1 binding to ligands, Pin1 and Pin1 mutant proteins were incubated with the catalytic subunit of PKA and PKC (a mixture of α, β and γ, UBI) in a kinase reaction buffer containing 500 μM cold ATP at 30° C. for 15 min (Lu, K. P. et al., Anal. Biochem. 196:421 (1991)). The reactions were stopped by adding SDS sample buffer and reaction products separated on SDS-gels, followed by autoradiography. Pin1 proteins were isolated and used to bind MPM-2 antigens from mitotic extracts from HeLa cells, as previously described (Shen, M., et al., Genes & Dev 12:706 (1998)). Experiments were also performed with PKA and PKC, casein kinase, cyclin B/Cdc2 and SRPK1 kinases.
# WFYpSPFLE (Pintide) = assay: Fluorescence anisotropy (polarization) binding to fluorescein-labeled phosphorylated Pintide analogue; conditions: for Kd for Pintide (μM): fluorescein labeled Pintide, high affinity pSer-binding site in the WW-domain
# Text: To determine the affinity of Pin1, and its WW or PPIase domain for phosphopeptides, peptides were labeled with fluorescein and their interactions with Pin1 measured using quantitative fluorescence anisotrophy. To prevent nonspecific labeling, a Pintide analogue (WFYpSPFLE) SEQ ID NO: 9 was used, which binds Pin1 with a high affinity based on the peptide library screen as described by (Lu, K. P. et al., U.S. Ser. No. 60/058,164 (1997), the teachings of which are incorporated herein in their entirety.
# as §1
# [2] = target: […] (Cdc25 Peptide, nonphosphorylated); assay: GST-WW-domain incubated with peptide on a membrane, immunoblotting with GST antibody; type: binding
# [3] = target: EQPLpTPVTDL (Cdc25 Peptide); assay: Fluorescence anisotropy binding to fluorescein-labeled phosphorylated Cdc25 peptide; conditions: GST-WW-domains
# WFYSPFLE = assay: Fluorescence anisotropy binding to fluorescein-labeled nonphosphorylated control peptide; conditions: GST-WW-domains, N.B., not binding detected
# peptide substrate = assay: PPIase activity assay with peptide substrate; type: biochemical; conditions: relative to wild-type protein defined as 100%
# [4] = tested on: temperature-sensitive ptf1 yeast mutant (YPM2); assay: Rescue of temperature-sensitive ptf1 yeast mutant (in vivo function); type: cell-based; conditions: YPM2 cells, restrictive temperature
# Procedure: Given the essential role of the WW-domain in conferring Pin1-binding specificity in vitro, a critical question is whether this domain is important in vivo. To address this question, experiments using the PIN1 yeast homologue, ESS1/PTF1 were performed. ESS1/PTF1 is essential for cell growth and human Pin1 can carry out this essential function when transfected into yeast cells (Lu, K. P. et al., Nature 380:544 (1996); Hanes, S. D. et al., Yeast 5:55 (1989); Hani, J. et al., FEBS Lett. 365:198 (1995)). A temperature-sensitive ptf1 mutant strain, YPM2, grows at the permissive temperature (23° C.), but not at the restrictive temperature (30° C.) (Hanes, S. D. et al., Yeast 5:55 (1989); Hani, J. et al., FEBS Lett. 365:198 (1995)). This phenotype is completely rescued by a 1.5 kb PTF1 genomic fragment, which also contains the promoter and the 3′ processing sequence (FIG. 3). To insure that all human Pin1 proteins were expressed at physiological levels under normal regulation, the coding sequence of the fully functional ESS1/PTF1 gene in a Yepvector was replaced with the coding sequence of the human PIN1 (or Pin1 mutant) cDNA (FIG. 3) and transformed into a temperature-sensitive ptf1 strain. Transformants were selected on minimal media minus Leu at the permissive temperature (23° C.) and protein expression was detected by immunoblotting analysis using 12CA5 monoclonal antibody specific for the HA epitope tag inserted at the N-terminus. […] Those strains expressing similar levels of Pin1 and Pin1 mutants were grown at permissive and nonpermissive temperature.
# tau-promoted MT assembly = assay: Microtubule assembly light-scattering assay (turbidity at 350 nm); type: biochemical; conditions: 0.05 mg/ml protein, 0.05 mg/ml tau
# tau-promoted MT assembly, sequence (P10636 45-219 isoform P10636-2 limits assumed): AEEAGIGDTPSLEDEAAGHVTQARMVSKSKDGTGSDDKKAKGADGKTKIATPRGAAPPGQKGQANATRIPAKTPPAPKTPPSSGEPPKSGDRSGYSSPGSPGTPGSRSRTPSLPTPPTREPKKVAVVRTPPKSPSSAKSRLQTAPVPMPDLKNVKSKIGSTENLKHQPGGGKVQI
# Procedure: The effect of Pin1 on the ability of phosphorylated tau to promote MT assembly was determined using light-scattering assays (Bramblett, G. T. et al., Neuron 10:1089-1099(1993); Alonso, A. C. et al., Proc Natl Acad Sci USA 91:5562-5566 (1994); Busciglio, J. et al., Neuron 14:879-888 (1995)). Briefly, MTs were assembled from phosphocellulose purified bovine tubulin (Cytoskeleton, Inc) and stabilized by Taxol. The nonphosphorylated or Cdc2 phosphorylated recombinant tau (0.1 mg/ml) was incubated with Pin1 (0.1 mg/ml) at 35° C. for 5 min before adding to the MTs. Bound tau was isolated by centrifugation (50,000×g) at 25° C. for 20 min, followed by immunoblotting analysis using CP27 and Pin1 antibodies. The ability of tau to promote MT assembly was determined using well established light-scattering assays. Briefly, the assembly of MTs was initiated by incubating tubulin (2 mg/ml) with or without tau (0.05 mg/ml) in 80 mM PIPES, pH 6.8, 1 mM EGTA, 1 mM MgCl2, 1 mM GTP, 20% glycerol at 35° C. for 2 min. The mixture was then transferred to a 100 μl cuvet and the rate of the MT assembly was monitored at room temperature using the turbidity increase at 350 nm. To examine the effect of Pin1, Pin1 or its mutant (0.05 mg/ml) was pre-incubated with tau or Cdc2 phosphorylated tau (0.05 mg/ml) at 35° C. for 5 min before the MT assembly assays.
# [5] = low affinity binding site, read-out: WFYpSPFLE Kd(μM) Low affinity
compound,measurement,setting,value
CC(C)[C@H](NC(=O)[C@H](C)NC(=O)[C@@H](NC(=O)[C@@H](N)CCCCN)C(C)C)C(=O)N[C@H](C(=O)N[C@@H](CCCNC(=N)N)C(=O)N[C@H](C(=O)N1CCC[C@H]1C(=O)N1CCC[C@H]1C(=O)N[C@@H](CCCCN)C(=O)N[C@@H](CO)C(=O)N1CCC[C@H]1C(=O)N[C@@H](CO)C(=O)O)[C@@H](C)OP(=O)(O)O)C(C)C [pT-231],"Binding (OD@405 nm), tau peptide",Pin1^R14A,1.30 OD@405 nm
same,"Binding (OD@405 nm), tau peptide",Pin1^Y23A,0.00 OD@405 nm
same,"Binding (OD@405 nm), tau peptides",Pin1,1.46 OD@405 nm
Nedd4 WW-domain: GST-WW-domain of ubiquitin ligase Nedd4; text ties Table 1 to WW-domain-2,binding to mitotic phosphoproteins / MPM-2 antigens (in words),[1],bound only a few MPM-2 antigens
same,Kd,"WFYpSPFLE (Pintide); GST-WW-domains, fluorescein-labeled peptide, average of three independent experiments, read-out: Kd (μM) Pintide WFYpSPFLE",10 µM
same,Kd (μM) Cdc25 Peptide EQPLTPVTDL,[2],N.B.*
same,Kd,[3],20 µM
same,Kd (μM) Pintide nonphosphorylated WFYSPFLE,WFYSPFLE,N.B.
same,Kd (μM) Pintide nonphosphorylated WFYSPFLE,WFYSPFLE; listed as WW-domain of Nedd4,did not bind
Pin1^S16E: Pin1 with Ser-16 mutated to Glu,Phosphoprotein binding activity,[1],−
same,binding to mitotic phosphoproteins / MPM-2 antigens (in words),[1],failed to bind mitotic phosphoproteins
same,WFYpSPFLE Kd(μM) High affinity,WFYpSPFLE (Pintide); high affinity binding site,no high affinity-binding site
same,Kd,WFYpSPFLE (Pintide); [5],10.5 µM
same,PPlase Activity (%),peptide substrate,95%
same,complementation of temperature-sensitive ptf1 phenotype (in words),[4],abolish the ability of Pin1 to support cell growth
Pin1^W34A: Pin1 with single Ala point mutation of Trp-34 in the WW-domain,Phosphoprotein binding activity,[1],−
same,binding to mitotic phosphoproteins / MPM-2 antigens (in words),[1],completely abolished
same,Kd for Pintide (μM),WFYpSPFLE (Pintide),N.B.
same,Kd,WFYpSPFLE (Pintide); [5],14 µM
same,PPlase Activity (%),peptide substrate,94%
same,complementation of temperature-sensitive ptf1 phenotype (in words),[4],abolish the ability of Pin1 to support cell growth
Pin1^Y23A: Pin1 with single Ala point mutation of Tyr-23 in the WW-domain,Phosphoprotein binding activity,[1],−
same,binding to mitotic phosphoproteins / MPM-2 antigens (in words),[1],completely abolished
same,Kd for Pintide (μM),WFYpSPFLE (Pintide),N.B.
same,Kd,WFYpSPFLE (Pintide); [5],13.5 µM
same,effect on ability of Cdc2 phosphorylated tau to promote MT assembly,tau-promoted MT assembly,did not have any effect
same,PPlase Activity (%),peptide substrate,85%
same,complementation of temperature-sensitive ptf1 phenotype (in words),[4],abolish the ability of Pin1 to support cell growth
